Counter-ions that a name gives are not always drawn.
Target: TrkA kinase (Homo sapiens, UniProt P04629)
Assay: TrkA kinase assay (mobility shift assay)
Assay type: biochemical
Settings: class symbols; read-out: Trk A Kinase IC50
Experimental: Example 201 TrkA Kinase Assay
Mobility shift assay was used to determine the inhibitory activity of compounds against TrkA kinase. Assay procedures are as follows:
1× Kinase base buffer (50 mM HEPES, pH 7.5; 0.0015% Brij-35)
Stop buffer (100 mM HEPES, pH 7.5; 0.015% Brij-35; 0.2% Coating Reagent #3; 50 mM EDTA)
1) Dilute the compound to 50× of the final desired highest inhibitor concentration in reaction by 100% DMSO. Transfer 100 μl of this compound dilution to a well in a 96-well plate.
2) For all compounds, transfer the compound in tubes to one well on 96-well storage plate and serially dilute the compound by transferring 30 μl to 60 μl of 100% DMSO in the next well and so forth for a total of 10 concentrations.
3) Add 100 μl of 100% DMSO to two empty wells for no compound control and no enzyme control in the same 96-well plate. Mark the plate as source plate.
4) Prepare intermediate plate
Transfer 10 μl of compound from source plate to a new 96-well plate as the intermediate plate
Add 90 µl of 1× kinase buffer to each well of the intermediate plate.
Mix the compounds in intermediate plate for 10 min on shaker.
1) Transfer 5 μl of each well from the 96-well intermediate plate to a 384-well plate in duplicates. For example, A1 of the 96-well plate is transferred to A1 and A2 of the 384-well plate. A2 of the 96-well plate is transferred to A3 and A4 of the 384-well plate, and so on.
1) Prepare 2.5× enzyme solution
Add kinase in 1× kinase base buffer.
2) Prepare 2.5× peptide solution Add FAM-labeled peptide and ATP in the 1× kinase base buffer.
3) Assay plate already contains 5 μl of compound in 10% DMSO.
4) Transfer 2.5× enzyme solution to the assay plate
Add 10 μl of 2.5× enzyme solution to each well of the 384-well assay plate.
5) Incubate at room temperature for 10 min.
6) Transfer 2.5× peptide solution to the assay plate
Add 10 μl of 2.5× peptide solution to each well of the 384-well assay plate.
Kinase reaction conditions are shown as Table 11:
7) Kinase reaction and stop
Incubate at 28° C. for specified period of time.
Add 25 μl of stop buffer to stop reaction.
1) Copy conversion data from Caliper program.
2) Convert conversion values to inhibition values.
Percent inhibition=(max-conversion)/(max-min)*100.
“max” stands for DMSO control; “min” stands for low control.
3) Fit the data in XLFit excel add-in version 5.4.0.8 to obtain IC50 values.
Equation used is: Y=Bottom+(Top-Bottom)/(1+(IC50/X)^HillSlope)

TrkA kinase, sequence (P04629 33-796): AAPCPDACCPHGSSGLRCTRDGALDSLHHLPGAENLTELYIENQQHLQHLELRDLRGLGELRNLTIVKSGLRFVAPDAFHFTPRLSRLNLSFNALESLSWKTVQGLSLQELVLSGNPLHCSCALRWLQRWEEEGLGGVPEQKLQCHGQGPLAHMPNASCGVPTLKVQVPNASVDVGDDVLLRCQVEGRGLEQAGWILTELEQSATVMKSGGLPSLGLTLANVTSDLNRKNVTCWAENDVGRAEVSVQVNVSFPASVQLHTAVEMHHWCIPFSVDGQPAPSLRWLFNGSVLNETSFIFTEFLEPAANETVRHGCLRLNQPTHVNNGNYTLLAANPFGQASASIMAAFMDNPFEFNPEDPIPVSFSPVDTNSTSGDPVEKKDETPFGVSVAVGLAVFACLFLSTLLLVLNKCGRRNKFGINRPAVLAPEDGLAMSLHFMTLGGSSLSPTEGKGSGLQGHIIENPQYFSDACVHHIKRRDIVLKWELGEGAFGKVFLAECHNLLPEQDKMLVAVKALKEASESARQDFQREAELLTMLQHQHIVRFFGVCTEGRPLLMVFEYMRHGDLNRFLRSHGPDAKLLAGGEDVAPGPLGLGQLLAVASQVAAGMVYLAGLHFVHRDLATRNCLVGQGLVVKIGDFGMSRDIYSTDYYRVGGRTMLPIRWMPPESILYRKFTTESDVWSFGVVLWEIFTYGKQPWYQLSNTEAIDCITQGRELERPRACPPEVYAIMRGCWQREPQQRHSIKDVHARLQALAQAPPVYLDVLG

IC50 | Compound
≤ 10 nM | COC(=O)c1cc2oc(-c3cnn4ccc(N5CCC[C@@H]5c5cc(F)ccc5F)nc34)nc2cc1OC [Compound 178, methyl (R)-2-(5-(2-(2,5-difluorophenyl)pyrrolidin-1-yl)pyrazolo[1,5-a]pyrimidin-3-yl)-5-methoxybenzo[d]oxazole-6-carboxylate]
≤ 10 nM | Fc1ccc(F)c([C@H]2CCCN2c2ccn3ncc(-c4nc5c(s4)CCNC5)c3n2)c1 [Compound 189, (R)-2-(5-(2-(2,5-difluorophenyl)pyrrolidin-1-yl)pyrazolo[1,5-a]pyrimidin-3-yl)-4,5,6,7-tetrahydrothiazolo[4,5-c]pyridine]
10 to 50 nM | Oc1ccc2cc(-c3cnn4ccc(N5CCC[C@@H]5c5cc(F)ccc5F)nc34)[nH]c2c1 [Compound 186, (R)-2-(5-(2-(2,5-difluorophenyl)pyrrolidin-1-yl)pyrazolo[1,5-a]pyrimidin-3-yl)-1H-indol-6-ol]
10 to 50 nM | Fc1ccc(F)c([C@H]2CCCN2c2ccn3ncc(-c4nnc5n4CCOC5)c3n2)c1 [Compound 200, (R)-3-(5-(2-(2,5-difluorophenyl)pyrrolidin-1-yl)pyrazolo[1,5-a]pyrimidin-3-yl)-5,6-dihydro-8H-[1,2,4]triazolo[3,4-c][1,4]oxazine]
≤ 10 nM | O=C1NCCNc2cc3[nH]c(-c4cnn5ccc(N6CCC[C@@H]6c6cc(F)ccc6F)nc45)nc3cc21 [Compound 146, (R)-2-(5-(2-(2,5-difluorophenyl)pyrrolidin-1-yl)pyrazolo[1,5-a]pyrimidin-3-yl)-5,6,7,8-tetrahydroimidazo[4′,5′:4,5]benzo[1,2-e][1,4]diazepin-9(3H)-one]
≤ 10 nM | CNc1cc2[nH]c(-c3cnn4ccc(N5CCC[C@@H]5c5cc(F)ccc5F)nc34)nc2cc1C#N [Compound 142, (R)-2-(5-(2-(2,5-difluorophenyl)pyrrolidin-1-yl)pyrazolo[1,5-a]pyrimidin-3-yl)-6-(methylamino)-1H-benzo[d]imidazole-5-carbonitrile]
≤ 10 nM | Cc1cc2[nH]c(-c3cnn4ccc(N5CCC[C@@H]5c5cc(F)ccc5F)nc34)nc2cc1C#N [Compound 159, (R)-2-(5-(2-(2,5-difluorophenyl)pyrrolidin-1-yl)pyrazolo[1,5-a]pyrimidin-3-yl)-6-methyl-1H-benzo[d]imidazole-5-carbonitrile]

The next lines start with the compound.

Compound | IC50
OC1CCNC(c2nnc(-c3cnn4ccc(N5CCC[C@@H]5c5cc(F)ccc5F)nc34)[nH]2)C1 (stereo partly drawn) [Compound 35, 2-(5-(5-((R)-2-(2,5-difluorophenyl)pyrrolidin-1-yl)pyrazolo[1,5-a]pyrimidin-3-yl)-4H-1,2,4-triazol-3-yl)piperidin-4-ol] | 10 to 50 nM
OC(c1nnc(-c2cnn3ccc(N4CCC[C@@H]4c4cc(F)ccc4F)nc23)[nH]1)(C(F)(F)F)C(F)(F)F [Compound 27, (R)-2-(5-(5-(2-(2,5-difluorophenyl)pyrrolidin-1-yl)pyrazolo[1,5-a]pyrimidin-3-yl)-4H-1,2,4-triazol-3-yl)-1,1,1,3,3,3-hexafluoropropan-2-ol] | > 50 nM
CC(C)[C@H](N)C(=O)N[C@H](C(=O)O[C@@H](C)c1nnc(-c2cnn3ccc(N4CCC[C@@H]4c4cc(F)ccc4F)nc23)[nH]1)C(C)C [Compound 55, (S)-1-(5-(5-((R)-2-(2,5-difluorophenyl)pyrrolidin-1-yl)pyrazolo[1,5-a]pyrimidin-3-yl)-4H-1,2,4-triazol-3-yl)ethyl L-valylvalinate hydrochloride] | 10 to 50 nM
Fc1ccc(F)c([C@H]2CCCN2c2ccn3ncc(-c4nc5cnc(N6CCOCC6)cc5[nH]4)c3n2)c1 [Compound 64, (R)-4-(2-(5-(2-(2,5-difluorophenyl)pyrrolidin-1-yl)pyrazolo[1,5-a]pyrimidin-3-yl)-1H-imidazo[4,5-c]pyridin-6-yl)morpholine] | > 50 nM

Same assay, conditions: numeric values; read-out: Trk A Kinase IC50

IC50 | Compound
7 nM | Fc1ccc(F)c([C@H]2CCCN2c2ccn3ncc(-c4nc5ncc(Cl)c(Cl)c5[nH]4)c3n2)c1 [Compound 102, (R)-6,7-dichloro-2-(5-(2-(2,5-difluorophenyl)pyrrolidin-1-yl)pyrazolo[1,5-a]pyrimidin-3-yl)-1H-imidazo[4,5-b]pyridine]
27 nM | N#Cc1cc2[nH]c(-c3cnn4ccc(N5CCC[C@@H]5c5cc(F)ccc5F)nc34)nc2cc1C(F)(F)F [Compound 157, (R)-2-(5-(2-(2,5-difluorophenyl)pyrrolidin-1-yl)pyrazolo[1,5-a]pyrimidin-3-yl)-5-(trifluoromethyl)-1H-benzo[d]imidazole-6-carbonitrile]
6.7 nM | Fc1ccc(F)c([C@H]2CCCN2c2ccn3ncc(-c4nc5cccc(OC(F)(F)F)c5[nH]4)c3n2)c1 [Compound 113, (R)-5-(2-(2,5-difluorophenyl)pyrrolidin-1-yl)-3-(7-(trifluoromethoxy)-1H-benzo[d]imidazol-2-yl)pyrazolo[1,5-a]pyrimidine]
2.3 nM | COc1cc2[nH]c(-c3cnn4ccc(N5CCC[C@@H]5c5ccccc5F)nc34)nc2cc1C#N [Compound 195, (R)-2-(5-(2-(2-fluorophenyl)pyrrolidin-1-yl)pyrazolo[1,5-a]pyrimidin-3-yl)-6-methoxy-1H-benzo[d]imidazole-5-carbonitrile]
5.3 nM | Fc1ccc(F)c([C@H]2CCCN2c2ccn3ncc(-c4nc5cc(F)cc(F)c5o4)c3n2)c1 [Compound 111, (R)-2-(5-(2-(2,5-difluorophenyl)pyrrolidin-1-yl)pyrazolo[1,5-a]pyrimidin-3-yl)-5,7-difluorobenzo[d]oxazole]

Second part, the compound before the results:

Compound | IC50
COc1cc2nc(-c3cnn4ccc(N5CCC[C@@H]5c5cc(F)ccc5F)nc34)[nH]c2cc1CO [Compound 67, (R)-(2-(5-(2-(2,5-difluorophenyl)pyrrolidin-1-yl)pyrazolo[1,5-a]pyrimidin-3-yl)-5-methoxy-1H-benzo[d]imidazol-6-yl)methanol] | 0.32 nM
CC(C)(C)OC(=O)N1CCC1c1nnc(-c2cnn3ccc(N4CCC[C@@H]4c4cc(F)ccc4F)nc23)[nH]1 (stereo partly drawn) [Compound 20, tert-butyl 2-(5-(5-((R)-2-(2,5-difluorophenyl)pyrrolidin-1-yl)pyrazolo[1,5-a]pyrimidin-3-yl)-4H-1,2,4-triazol-3-yl)azetidine-1-carboxylate] | 47 nM
COc1cc2[nH]c(-c3cnn4ccc(N5CCC[C@@H]5c5cc(F)ccc5F)nc34)nc2cn1 [Compound 85, (R)-2-(5-(2-(2,5-difluorophenyl)pyrrolidin-1-yl)pyrazolo[1,5-a]pyrimidin-3-yl)-6-methoxy-1H-imidazo[4,5-c]pyridine] | 0.31 nM
CC(O)(Cc1nnc(-c2cnn3ccc(N4CCC[C@@H]4c4cc(F)ccc4F)nc23)[nH]1)C(F)(F)F (stereo partly drawn) [Compound 29, 3-(5-(5-((R)-2-(2,5-difluorophenyl)pyrrolidin-1-yl)pyrazolo[1,5-a]pyrimidin-3-yl)-4H-1,2,4-triazol-3-yl)-1,1,1-trifluoro-2-methylpropan-2-ol] | 1.4 nM
Fc1ccc(F)c([C@H]2CCCN2c2ccn3ncc(-c4nnc(C5CCC(F)(F)CC5)[nH]4)c3n2)c1 [Compound 41, (R)-3-(5-(4,4-difluorocyclohexyl)-4H-1,2,4-triazol-3-yl)-5-(2-(2,5-difluorophenyl)pyrrolidin-1-yl)pyrazolo[1,5-a]pyrimidine] | 3.92 nM
